Results taken from patent US7629318B2, “Immunosuppressant compounds, methods and uses related thereto” (priority 2002, dated 2009).
Several values for one entry are separate records, joined by “and”; a condition that tells them apart may be missing. Identical values can stand only once. Like-named read-outs stand apart in the source and are kept apart here. Numbered stars: 1 amine (or outer) side, 2 acyl side, 3 side chain; on linkers, the order of the positions; unused ones are H or OH. Square brackets hold non-standard residues; d marks the D form. Peptide text beside a SMILES is read from it. * marks the point of attachment. ξ: configuration not given here. Gly(1-amidinopiperidin-4-yl) = N=C(N)N1CCC([C@H](N)C(=O)O)CC1; X1 = CC(C)c1oc([C@H](CO)N[*:1])nc1C(=O)[*:2]; Pro(3R-Ph) = O=C(O)[C@H]1NCC[C@@H]1c1ccccc1; Tic = O=C(O)[C@@H]1Cc2ccccc2CN1; Cha = N[C@@H](CC1CCCCC1)C(=O)O; NHPhenethyl = c1ccc(CCN*)cc1; NMe(benzyl) = CN(Cc1ccccc1)*; ξDisc = O=C(O)C1NCc2ccccc21; Nle = CCCC[C@H](N)C(=O)O

Assays:
[1] = target: Cathepsin B1 (EC 3.4.22.1 from bovine spleen) (Bos taurus, UniProt P07688); details: Cathepsin B, 4 h
[2] = target: DR1 (DRA1*0101 DRB1*0101) (Homo sapiens, UniProt P01903+P01911, A100R/D57E/F55L/F60I/F76Y/I96L/L162R/M171V/P40L/Q125E/R42F/V115G/Y59C); assay: Competitive binding to MHC-II protein DR1
Method in brief: (§1)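 Each MHC-II allele incubated with compound 16 hours at room temperature in duplicate; controls lacked compound, or both compound and MHC-II. Complexes captured 2 h at 4 °C, bound biotinylated peptide detected via europium-streptavidin and DELFIA enhancement, time-resolved fluorescence read at ex 340/em 613 (615) nm.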

[3] = target: T1, LG2 (DR1: DRA1*0101 DRB1*0101) cells (Homo sapiens, UniProt P01903+P01911, A100R/D57E/F55L/F60I/F76Y/I96L/L162R/M171V/P40L/Q125E/R42F/V115G/Y59C); assay: Competitive binding to MHC II proteins expressed on LG2 cells; format: cell-based; details: LG2 (0101)
T1 construct: MHC II Proteins Expressed on PRIESS and LG2 Cells; endogenous in cells; host or cells: LG2 cells
Method in brief: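 LG2 or Priess cells incubated 4 h at 37° C, 6% CO2 in 1% FCS with 10-fold compound dilutions (series 16 nM-1615 μM) and biotinylated-detectable indicator peptide (16 μM solution added). Lysates captured 2 h at 4° C; bound peptide detected via europium-streptavidin time-resolved fluorescence (ex 340, em 613 nm).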

[4] = tested on: T-cell proliferation, lymph node cells of chimeric 0401-IE transgenic mice; details: for Immunsupressive assays DR4-LN (Max) % Inhibition: maximal inhibition; for immunosuppressive properties as measured by a T-cell activation assay: dose-response curves; for IC50: read-out: Immunsupressive assays DR4-LN (IC50); for Immunsupressive assays DR4-LN (Max) % Inhibition / IC50: DR4-LN
Method in brief: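 Antigen-primed lymph node cells (1.5×10^5/well) from mice lacking murine class II and carrying a chimeric human RA-associated class II transgene, cultured 3 days with ovalbumin at half-maximal dose plus compound (~0.1–200 uM) in serum-free HL-1. Proliferation read by 3H-thymidine incorporation over the final 16 h.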

[5] = Stability of compounds in mouse blood plasma; format: in vitro ADME
Method in brief: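 Compounds at 5 μM final in rat, mouse or human plasma, incubated at 37 °C and sampled at 0, 6 and 24 h. Proteins precipitated with acetonitrile and the supernatant dried and reconstituted in 50% acetonitrile/0.1% TFA. PBS controls run for unstable compounds.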

[6] = target: DR4Dw14 (DRA1*0101 DRB1*0404) (Homo sapiens, UniProt P01903+P01911, A100R/A169T/F76Y/I96L/K127E/L162R/M171V/N62H/P40V/Q125Y/R42H/S133A/S149N/S66Y/V209L/W38E); assay: Competitive binding to MHC-II protein DR4Dw14; details: 0404; read-out: Protein binding IC50 (nM) 0404
Method in brief: as §1

[7] = Protein binding IC50 (nM) 0101, 0101
[8] = Cell binding IC50 (uM) LG2 (0101)

| Compound | Stability (Arbitrary units) Cath B 4 h [1] | IC50 [2, 7] [nM] | IC50 [3, 8] | Immunsupressive assays DR4-LN (Max) % Inhibition [4] [%] | immunosuppressive properties as measured by a T-cell activation assay, versus Arg equivalent ([4]; dose-response curve, compared to the Arg-containing peptide) | immunosuppressive properties as measured by a T-cell activation assay [4] | IC50 [4] | Stability (Arbitrary units) Mouse 6 h [5] [Arbitrary units] | Stability (Arbitrary units) Mouse 24 h [5] [Arbitrary units] | IC50 [6] [nM] | IC50 ([2]; read-out: Protein binding IC50 (nM) 0101, 0101) [nM] | IC50 ([3]; read-out: Cell binding IC50 (uM) LG2 (0101)) [µM] |
| --- | --- | --- | --- | --- | --- | --- | --- | --- | --- | --- | --- | --- |
| CCCC[C@H](NC(=O)[C@@H]1Cc2ccccc2CN1C(=O)[C@@H](NC(=O)[C@H](CC1CCCCC1)NC(C)=O)C1CCN(C(=N)N)CC1)C(=O)N1CC[C@H](c2ccccc2)[C@H]1C(=O)N[C@@H](CO)c1nc(C(=O)N(C)C)c(C(C)C)o1 [Compound P53, Ac-Cha-Gpg-Tic-Nle-βPhPro-[S(oxaz)L]-NMe2] (Ac-[Cha][Gly(1-amidinopiperidin-4-yl)][Tic][Nle][Pro(3R-Ph)][X1]-NMe2) | 97 Arbitrary units | 340 | 3.5 µM | 100 | improved immunosuppressive properties | immunosuppressive properties | 40 µM | 117 | 115 | 180 | – | – |
| CCCC[C@H](NC(=O)C1c2ccccc2CN1C(=O)[C@H](CCCNC(=N)N)NC(=O)[C@H](CC1CCCCC1)NC(C)=O)C(=O)N(C)Cc1ccccc1 (stereo partly drawn) [Compound P72-1, Ac-Cha-Arg-Disc-Nle-N(Me)Bn] (Ac-[Cha]R[ξDisc][Nle]-{NMe(benzyl)}) | 98 Arbitrary units | 1200 | 12 µM | 103 | – | – | 31 µM | 97 | 75 | 1700 | – | – |
| CCCC[C@H](NC(=O)[C@@H]1Cc2ccccc2CN1C(=O)[C@@H](NC(=O)[C@H](CC1CCCCC1)NC(C)=O)C1CCN(C(=N)N)CC1)C(=O)NCCc1ccccc1 [Compound P69, Ac-Cha-Gpg-Tic-Nle-N(H)CH2CH2Ph] (Ac-[Cha][Gly(1-amidinopiperidin-4-yl)][Tic][Nle]-NHPhenethyl) | 92 Arbitrary units | 690 | 6.2 µM and 8.2 µM | 101 | – | immunosuppressive properties | 19 µM | 115 | 85 | 4500 | – | – |
| CSCC[C@H](NC(=O)C1c2ccccc2CN1C(=O)[C@@H](NC(=O)[C@H](CC1CCCCC1)NC(C)=O)C1CCN(C(=N)N)CC1)C(N)=O (stereo partly drawn) [Compound P66-1, Ac-Cha-Gpg-Disc-Met-NH2] (Ac-[Cha][Gly(1-amidinopiperidin-4-yl)][ξDisc]M-NH2) | 102 Arbitrary units | 290 | 6 µM | 20 | – | – | 120 µM | 115 | 112 | 590 | – | – |
| CCCC[C@H](NC(=O)[C@@H]1Cc2ccccc2CN1C(=O)[C@H](CCCNC(=N)N)NC(=O)[C@H](CC1CCCCC1)NC(C)=O)C(=O)N1CC[C@H](c2ccccc2)[C@H]1C(=O)N[C@@H](CO)c1nc(C(=O)N(C)C)c(C(C)C)o1 [Compound P51, Ac-Cha-Arg-Tic-Nle-βPhPro-[S(oxaz)L]-NMe2] (Ac-[Cha]R[Tic][Nle][Pro(3R-Ph)][X1]-NMe2) | 103 Arbitrary units | 400 | 3 µM | 100 | – | – | 38 µM and 36 µM | – | 136 | 210 | – | – |
| CCCC[C@H](NC(=O)[C@@H]1Cc2ccccc2CN1C(=O)[C@@H](NC(=O)[C@H](CC1CCCCC1)NC(C)=O)C1CCN(C(=N)N)CC1)C(=O)N(C)Cc1ccccc1 [Compound P74, Ac-Cha-Gpg-Tic-Nle-N(Me)Bn] (Ac-[Cha][Gly(1-amidinopiperidin-4-yl)][Tic][Nle]-{NMe(benzyl)}) | 105 Arbitrary units | 360 | 6.1 µM | 102 | – | immunosuppressive properties | 16 µM and 18 µM | – | 97 | 2200 | – | – |
| CSCC[C@H](NC(=O)[C@@H]1Cc2ccccc2CN1C(=O)[C@H](CCCNC(=N)N)NC(=O)[C@H](CC1CCCCC1)NC(C)=O)C(N)=O [Compound P1, Ac-Cha-Arg-Tic-Met-NH2] (Ac-[Cha]R[Tic]M-NH2) | 87 Arbitrary units | 260 | 8.8 µM and 6.8 µM | 41 | – | – | 64 µM and 84 µM | – | 5 | 2300 | – | – |
| CCCC[C@H](NC(=O)C1c2ccccc2CN1C(=O)[C@@H](NC(=O)[C@H](CC1CCCCC1)NC(C)=O)C1CCN(C(=N)N)CC1)C(=O)N(C)Cc1ccccc1 (single isomer, unassigned) [Compound P76-1, Ac-Cha-Gpg-Disc-Nle-N(Me)Bn] | 100 Arbitrary units | – | – | 103 | – | – | 34 µM | 93 | 16 | 1400 | 550 | 4.6 |
| CSCC[C@H](NC(=O)[C@@H]1Cc2ccccc2CN1C(=O)[C@@H](NC(=O)[C@H](CC1CCCCC1)NC(C)=O)C1CCN(C(=N)N)CC1)C(=O)N1CC[C@H](c2ccccc2)[C@H]1C(=O)N[C@@H](CO)c1nc(C(=O)N(C)C)c(C(C)C)o1 [Compound P60, Ac-Cha-Gpg-Tic-Met-βPhPro-[S(oxaz)L]-NMe2] (Ac-[Cha][Gly(1-amidinopiperidin-4-yl)][Tic]M[Pro(3R-Ph)][X1]-NMe2) | 88 Arbitrary units and 98 Arbitrary units | 250 | 1.5 µM | 97 | – | – | 29 µM | 111 | 95 | 190 | – | – |
| CCCC[C@H](NC(=O)C1c2ccccc2CN1C(=O)[C@@H](NC(=O)[C@H](CC1CCCCC1)NC(C)=O)C1CCN(C(=N)N)CC1)C(=O)N1CC[C@H](c2ccccc2)[C@H]1C(=O)N[C@@H](CO)c1nc(C(=O)N(C)C)c(C(C)C)o1 (stereo partly drawn) [Compound P81-1] (Ac-[Cha][Gly(1-amidinopiperidin-4-yl)][ξDisc][Nle][Pro(3R-Ph)][X1]-NMe2) | 105 Arbitrary units | 220 | 5 µM | – | – | – | 63 µM | 87 | 84 | 90 | – | – |
| CSCC[C@H](NC(=O)C1c2ccccc2CN1C(=O)[C@H](CCCNC(=N)N)NC(=O)[C@H](CC1CCCCC1)NC(C)=O)C(N)=O (stereo partly drawn) [Compound P12-1, Ac-Cha-Arg-Disc-Met-NH2] (Ac-[Cha]R[ξDisc]M-NH2) | 96 Arbitrary units | 430 | 9.6 µM | 5 | – | – | > 200 µM | 76 | 38 | 860 | – | – |
| CSCC[C@H](NC(=O)C1c2ccccc2CN1C(=O)[C@@H](NC(=O)[C@H](CC1CCCCC1)NC(C)=O)C1CCN(C(=N)N)CC1)C(=O)N1CC[C@H](c2ccccc2)[C@H]1C(=O)N[C@@H](CO)c1nc(C(=O)N(C)C)c(C(C)C)o1 (stereo partly drawn) [Compound P41-1, Ac-Cha-Gpg-Disc-Met-βPhPro-[S(oxaz)L]-NMe2] (Ac-[Cha][Gly(1-amidinopiperidin-4-yl)][ξDisc]M[Pro(3R-Ph)][X1]-NMe2) | 104 Arbitrary units | 160 | 3.8 µM | 96 | – | – | 49 µM | 100 | 111 | 110 | – | – |
